The structures appear in SMILES notation. pIC50: −log10 of the molar value.

Data set [1] deals with A549/DDP (cisplatin-resistant A549 cells). The experiment in a line: MTT antiproliferative activity against cisplatin-resistant A549. As to conditions: for pIC50: MTT assay, cisplatin-resistant A549 cells. The data set is classed as cell-based. From the text: (§1) 3-(4,5-dimethylthiazol-2-yl)-2,5-diphenyltetrazolium bromide (MTT) assay was used to determined the antiproliferative activity of dihydroartemisinin-isatin hybrids 5a-e and 6a-j with three-carbon linker against A549, multidrug-resistant A549/DOX and A549/DDP lung cancer cell lines as well as cytotoxicity towards normal lung epithelial cell line (BEAS-2B). The inhibitory effects were expressed in terms of half maximal inhibitory concentration (IC50) values.
(§2) A549, A549/DOX, and A549/DDP lung cancer cells (2×10^3) were plated in each well of a 96-well plate and were allowed to adhere and spread for 24 h. The […] were added to a final concentration of 100 µM, and the cells were cultured for 24 h at 37 °C. 3-(4,5-dimethyl-2-thiazolyl)-2,5-diphenyltetrazolium bromide (MTT) solution (10 µL) was added to each well, and the cultures were incubated for an additional 4 h. A further 100 µL of […] was added and incubation continued overnight. The absorbance at 540 nm was determined in each well with a 96-well plate reader. The growth of the treated cells was compared with that of untreated cells.

In another data set the test system is A549 lung cancer cells. Kind of data set: MTT antiproliferative activity against A549. The data set is classed as cell-based. The settings on record: MTT assay, drug-sensitive A549.
Description: as §1, §2
(Tetrazolium dyes change colour on reduction, which living cells bring about.)

A further data set can be described thus: in vitro. As to conditions: human. The protocol: as §1
(§3) The compounds were dissolved in DMSO with concentrations from 1024 to 1 μg/mL. The NIH/3T3 cells were maintained in culture medium at 37 °C under 5% CO2 atmosphere. Cells were seeded in 96-well plates (1×10^4 cell per well) and allowed to recover for 24 h. After 72 h of exposure, cells were harvested and cell viability was assessed by MTT assay. The CC50 values were calculated by Bliss analysis.

Data set [2] deals with A549/DOX (doxorubicin-resistant A549 cells). Kind of data set: MTT antiproliferative activity against doxorubicin-resistant A549. The data set is classed as cell-based. The settings on record: for pIC50: MTT assay, doxorubicin-resistant A549 cells.
Description: as §1, §2

In data set [3] the test system is BEAS-2B normal lung epithelial cell line. The experiment in a line: MTT cytotoxicity towards normal lung epithelial cells. The settings on record: IC50(BEAS-2B)/IC50(A549). The protocol:
as §1, §3

Data set [4] concerns A549, A549/DOX and A549/DDP lung cancer cell lines. Kind of data set: MTT antiproliferative activity, summarised over the three lung cancer cell lines. It counts as cell-based. As to conditions: MTT assay, span of values over the three lung cancer cell lines; read-out: IC50 (range over A549, A549/DOX and A549/DDP).
Description: as §1, §2

Take `C[C@@H]1CC[C@H]2[C@@H](C)C(OCCCN3C(=O)C(=O)c4ccccc43)O[C@@H]3O[C@@]4(C)CC[C@@H]1[C@]32OO4` (stereo partly drawn) [5a, 1-(3-(((3R,5aS,6R,8aS,9R,12R,12aR)-3,6,9-trimethyldecahydro-12H-3,12-epoxy[1,2]dioxepino[4,3-i]isochromen-10-yl)oxy)propyl)indoline-2,3-dione]: the pIC50 (in data set [1] (Homo sapiens); in the data set with A549 lung cancer cells (Homo sapiens); in the data set “in vitro”; in data set [2] (Homo sapiens)) was less than 4.00 each time.
In the case of `C[C@@H]1CC[C@H]2[C@@H](C)C(OCCCN3C(=O)C(=O)c4cc(F)ccc43)O[C@@H]3O[C@@]4(C)CC[C@@H]1[C@]32OO4` (stereo partly drawn) [5b, 5-fluoro-1-(3-(((3R,5aS,6R,8aS,9R,12R,12aR)-3,6,9-trimethyldecahydro-12H-3,12-epoxy[1,2]dioxepino[4,3-i]isochromen-10-yl)oxy)propyl)indoline-2,3-dione], the pIC50 (in data set [1] (Homo sapiens); in the data set with A549 lung cancer cells (Homo sapiens); in “in vitro”; in data set [2] (Homo sapiens)) was less than 4.00 each time.
Regarding `C[C@@H]1CC[C@H]2[C@@H](C)C(OCCCN3C(=O)C(=O)c4cc(Cl)ccc43)O[C@@H]3O[C@@]4(C)CC[C@@H]1[C@]32OO4` (stereo partly drawn) [5c, 5-chloro-1-(3-(((3R,5aS,6R,8aS,9R,12R,12aR)-3,6,9-trimethyldecahydro-12H-3,12-epoxy[1,2]dioxepino[4,3-i]isochromen-10-yl)oxy)propyl)indoline-2,3-dione], the pIC50 is 4.10 in data set [1] (Homo sapiens), 4.27 in the data set on A549 lung cancer cells (Homo sapiens), less than 4.00 in the data set “in vitro” and 4.30 in data set [2] (Homo sapiens). In addition, the “RI2 (Resistance index: IC50(A549/DDP)/IC50(A549))” value in data set [1] worked out at 1.49. In data set [3], the “SI (Selectivity index: IC50(BEAS-2B)/IC50(A549))” value is recorded as greater than 1.8. In data set [2], the “RI1 (Resistance index: IC50(A549/DOX)/IC50(A549))” value is 0.93.
Consider `Cc1ccc2c(c1)C(=O)C(=O)N2CCCOC1O[C@@H]2O[C@@]3(C)CC[C@H]4[C@H](C)CC[C@@H]([C@H]1C)[C@@]24OO3` (stereo partly drawn) [5d, 5-methyl-1-(3-(((3R,5aS,6R,8aS,9R,12R,12aR)-3,6,9-trimethyldecahydro-12H-3,12-epoxy[1,2]dioxepino[4,3-i]isochromen-10-yl)oxy)propyl)indoline-2,3-dione], for which the pIC50 (in data set [1] (Homo sapiens); in the data set with A549 lung cancer cells (Homo sapiens); in “in vitro”; in data set [2] (Homo sapiens)) was less than 4.00 each time.
With `COc1ccc2c(c1)C(=O)C(=O)N2CCCOC1O[C@@H]2O[C@@]3(C)CC[C@H]4[C@H](C)CC[C@@H]([C@H]1C)[C@@]24OO3` (stereo partly drawn) [5e, 5-methoxy-1-(3-(((3R,5aS,6R,8aS,9R,12R,12aR)-3,6,9-trimethyldecahydro-12H-3,12-epoxy[1,2]dioxepino[4,3-i]isochromen-10-yl)oxy)propyl)indoline-2,3-dione], the pIC50 (in data set [1] (Homo sapiens); in the data set on A549 lung cancer cells (Homo sapiens); in the data set “in vitro”; in data set [2] (Homo sapiens)) was less than 4.00 throughout.
On to `C[C@@H]1CC[C@H]2[C@@H](C)C(OCCCN3C(=O)C(=NNC(N)=O)c4ccccc43)O[C@@H]3O[C@@]4(C)CC[C@@H]1[C@]32OO4` (stereo partly drawn) [6b, 2-(2-oxo-1-(3-(((3R,5aS,6R,8aS,9R,12R,12aR)-3,6,9-trimethyldecahydro-12H-3,12-epoxy[1,2]dioxepino[4,3-i]isochromen-10-yl)oxy)propyl)indolin-3-ylidene)hydrazine-1-carboxamide], for which the pIC50 (in data set [1] (Homo sapiens); with A549 lung cancer cells (Homo sapiens); in “in vitro”; in data set [2] (Homo sapiens)) was less than 4.00 throughout.
Regarding `C[C@@H]1CC[C@H]2[C@@H](C)C(OCCCN3C(=O)C(=NNC(N)=S)c4ccccc43)O[C@@H]3O[C@@]4(C)CC[C@@H]1[C@]32OO4` (stereo partly drawn) [6c, 2-(2-oxo-1-(3-(((3R,5aS,6R,8aS,9R,12R,12aR)-3,6,9-trimethyldecahydro-12H-3,12-epoxy[1,2]dioxepino[4,3-i]isochromen-10-yl)oxy)propyl)indolin-3-ylidene)hydrazine-1-carbothioamide], the pIC50 in data set [1] (Homo sapiens) is 4.54; in the data set on A549 lung cancer cells (Homo sapiens), 4.63; in the data set “in vitro”, less than 4.00; in data set [2] (Homo sapiens) it was 4.44. Further, the “RI2 (Resistance index: IC50(A549/DDP)/IC50(A549))” value in data set [1] was 1.24. Moreover, the “SI (Selectivity index: IC50(BEAS-2B)/IC50(A549))” value in data set [3] is recorded as greater than 4.3. Besides, the “RI1 (Resistance index: IC50(A549/DOX)/IC50(A549))” value in data set [2] is 1.57.
On to `C[C@@H]1CC[C@H]2[C@@H](C)C(OCCCN3C(=O)C(=NNC(N)=O)c4cc(F)ccc43)O[C@@H]3O[C@@]4(C)CC[C@@H]1[C@]32OO4` (stereo partly drawn) [6d, 2-(5-fluoro-2-oxo-1-(3-(((3R,5aS,6R,8aS,9R,12R,12aR)-3,6,9-trimethyldecahydro-12H-3,12-epoxy[1,2]dioxepino[4,3-i]isochromen-10-yl)oxy)propyl)indolin-3-ylidene)hydrazine-1-carboxamide], for which the pIC50 (in data set [1] (Homo sapiens); in the data set on A549 lung cancer cells (Homo sapiens); in “in vitro”; in data set [2] (Homo sapiens)) was less than 4.00 in each case.
Take `C[C@@H]1CC[C@H]2[C@@H](C)C(OCCCN3C(=O)C(=NO)c4cc(Cl)ccc43)O[C@@H]3O[C@@]4(C)CC[C@@H]1[C@]32OO4` (stereo partly drawn) [6f, 5-chloro-3-(hydroxyimino)-1-(3-(((3R,5aS,6R,8aS,9R,12R,12aR)-3,6,9-trimethyldecahydro-12H-3,12-epoxy[1,2]dioxepino[4,3-i]isochromen-10-yl)oxy)propyl)indolin-2-one]: the pIC50 in data set [1] (Homo sapiens) was 4.50; in the data set on A549 lung cancer cells (Homo sapiens) it was 4.61; in the data set “in vitro”, less than 4.00; in data set [2] (Homo sapiens), 4.57. Moreover, the “RI2 (Resistance index: IC50(A549/DDP)/IC50(A549))” value in data set [1] is given as 1.29. The “SI (Selectivity index: IC50(BEAS-2B)/IC50(A549))” value in data set [3] was greater than 4.0. Further, the “RI1 (Resistance index: IC50(A549/DOX)/IC50(A549))” value in data set [2] was determined as 1.08.
`Cc1ccc2c(c1)C(=NO)C(=O)N2CCCOC1O[C@@H]2O[C@@]3(C)CC[C@H]4[C@H](C)CC[C@@H]([C@H]1C)[C@@]24OO3` (stereo partly drawn) [6g, 3-(hydroxyimino)-5-methyl-1-(3-(((3R,5aS,6R,8aS,9R,12R,12aR)-3,6,9-trimethyldecahydro-12H-3,12-epoxy[1,2]dioxepino[4,3-i]isochromen-10-yl)oxy)propyl)indolin-2-one]: the pIC50 in data set [1] (Homo sapiens) was 4.30; in the data set on A549 lung cancer cells (Homo sapiens), 4.26; in the data set “in vitro”, less than 4.00; in data set [2] (Homo sapiens) it was 4.52. In data set [1], the “RI2 (Resistance index: IC50(A549/DDP)/IC50(A549))” value is recorded as 0.89. Also, the “SI (Selectivity index: IC50(BEAS-2B)/IC50(A549))” value in data set [3] was greater than 1.8. Moreover, the “RI1 (Resistance index: IC50(A549/DOX)/IC50(A549))” value in data set [2] is recorded as 0.54.
As to `C[C@@H]1CC[C@H]2[C@@H](C)C(=O)O[C@@H]3O[C@@]4(C)CC[C@@H]1[C@]32OO4` [Artemisinin], the pIC50 (in data set [4]; in data set [1] (Homo sapiens); in the data set with A549 lung cancer cells (Homo sapiens); in the data set “in vitro” (BEAS-2B normal lung epithelial cells); in data set [2] (Homo sapiens)) was less than 4.00 throughout.
As for `N.N.[Cl][Pt][Cl]` [cisplatin, reference compound], the pIC50 was 4.17 to 5.03 in data set [4], 4.17 in data set [1], 5.03 in the data set on A549 lung cancer cells and 4.70 in data set [2].
Turning to `COc1cccc2c1C(=O)c1c(O)c3c(c(O)c1C2=O)C[C@@](O)(C(=O)CO)C[C@@H]3O[C@H]1C[C@H](N)[C@H](O)[C@H](C)O1` [doxorubicin, reference compound], the pIC50 in data set [4] was 4.27 to 5.39; in data set [1] (Homo sapiens) it was 4.82; in the data set on A549 lung cancer cells (Homo sapiens) it was 5.39; in “in vitro”, 4.03; in data set [2] (Homo sapiens), 4.27.

The values above are taken from publication PMC8826081, “Three-Carbon Linked Dihydroartemisinin-Isatin Hybrids: Design, Synthesis and Their Antiproliferative Anticancer Activity” (Frontiers in Pharmacology, 2022).
